Data published in ChEMBL document CHEMBL1130520, “Solid phase synthesis of C-terminal carbohydrate modified enkephalins” (Bioorg Med Chem Lett, 1997).
Starred links: 1 amine or outer side, 2 acyl side, 3 side chain; linkers in the order of their positions; H or OH if unused. Non-standard residues stand in square brackets, D forms with d. Residues, ends and D or L forms follow the SMILES beside them. *: point of attachment. X1 = NC(=O)[C@@H]1O[C@@H](N*)[C@@H](O)[C@@H](O)[C@@H]1O; X3 = O=C(O)[C@@H]1O[C@@H](N*)[C@@H](O)[C@@H](O)[C@@H]1O; X2 = O=C(O)C1OC(NC(=O)C2OC(N*)C(O)C(O)C2O)C(O)C(O)C1O; hMet = CSCCC[C@H](N)C(=O)O; CO = O=C([*:1])[*:2]

Columns and labels:
Type in all cases: functional
[1] = organism: Cavia porcellus; assay: Compound was tested for relative potency with respect to the compound Enkephalinamide in GPI assay
[2] = organism: Cavia porcellus; assay: Compound was tested in vitro for inhibiting electrically stimulated muscle contractions in guinea pig ileum (GPI)
[3] = organism: Mus musculus; assay: Compound was tested for relative potency with respect to the compound Enkephalinamide in MVD assay
[4] = organism: Mus musculus; assay: Compound was tested in vitro for inhibiting electrically stimulated muscle contractions in mouse vas deferens (MVD); conditions: Muscle tissue

| SMILES | IC50 [2] [nM] | IC50 [4] [nM] | Relative potency [1] | Relative potency [3] |
| --- | --- | --- | --- | --- |
| CC(C)C[C@H](NC(=O)[C@H](Cc1ccccc1)NC(=O)CNC(=O)CNC(=O)[C@@H](N)Cc1ccc(O)cc1)C(N)=O (single isomer, unassigned) [[LEU5]ENKEPHALIN] | 540 | 280 | 1 | 1 |
| CC(C)C[C@H](NC(=O)N[C@@H]1O[C@@H](C(N)=O)[C@@H](O)[C@H](O)[C@@H]1O)C(=O)N[C@@H](Cc1ccccc1)C(=O)NCC(=O)NCC(=O)N[C@@H](Cc1ccc(O)cc1)C(=O)O ({X1-CO}-LFGGY-OH) | 3860 | 110 | 0.14 | 0.51 |

Second part, led by results:

| IC50 [2] [nM] | IC50 [4] [nM] | SMILES | Relative potency [1] | Relative potency [3] |
| --- | --- | --- | --- | --- |
| 1040 | 550 | CC(C)C[C@H](NC(=O)NC1OC(C(=O)NC2OC(C(=O)O)C(O)C(O)C2O)C(O)C(O)C1O)C(=O)N[C@@H](Cc1ccccc1)C(=O)NCC(=O)NCC(=O)N[C@@H](Cc1ccc(O)cc1)C(=O)O (stereo not given in full) ({X2-CO}-LFGGY-OH) | 0.52 | 2.56 |
| 200 | 8 | CC(C)C[C@H](NC(=O)N[C@@H]1O[C@@H](C(=O)O)[C@@H](O)[C@H](O)[C@@H]1O)C(=O)N[C@@H](Cc1ccccc1)C(=O)NCC(=O)NCC(=O)N[C@@H](Cc1ccc(O)cc1)C(=O)O ({X3-CO}-LFGGY-OH) | 2.74 | 35.39 |
| 110 | 70 | CSCCC[C@H](NC(=O)N[C@@H]1O[C@@H](C(=O)O)[C@@H](O)[C@H](O)[C@@H]1O)C(=O)N[C@@H](Cc1ccccc1)C(=O)NCC(=O)NCC(=O)N[C@@H](Cc1ccc(O)cc1)C(=O)O ({X3-CO}-[hMet]FGGY-OH) | 4.54 | 3.8 |
